Results reported in patent publication US20250215030A1, “STAT MODULATORS AND USES THEREOF” (Recludix Pharma, Inc., priority 2022, published 2025).

Key:
[1] = target: T1, Recombinant STAT3 protein (STAT3(G127-I722)) (Homo sapiens, UniProt P40763); assay: STAT3 Fluorescence Polarization (FP) Assay; type: binding; settings: STAT3(G127-I722) 25 nM, probe 5-FAM-GpYLPQTV-NH2 2 nM, 45-minute incubation
T1 construct: STAT3(G127-I722)
Method in brief: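 Serially diluted compounds (1% DMSO) were mixed with 2 nM fluorescent phosphotyrosine peptide and 25 nM STAT3 construct G127-I722, pH 7.4, incubated 45 min at room temperature. IC50 values from fitted polarization curves are reported as categories A (≤100 nM), B, C, D (>10 μM).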

[2] = target: T2, Recombinant STAT6 protein (STAT6(W123-T658)) (Homo sapiens, UniProt P42226); assay: STAT6 Fluorescence Polarization (FP) Assay; type: binding; settings: STAT6(W123-T658) 250 nM, probe 5-FAM-ApYKPFQDLI-NH2 2 nM, 45-minute incubation
T2 construct: STAT6(W123-T658)
T2 sequence (P42226 123-658): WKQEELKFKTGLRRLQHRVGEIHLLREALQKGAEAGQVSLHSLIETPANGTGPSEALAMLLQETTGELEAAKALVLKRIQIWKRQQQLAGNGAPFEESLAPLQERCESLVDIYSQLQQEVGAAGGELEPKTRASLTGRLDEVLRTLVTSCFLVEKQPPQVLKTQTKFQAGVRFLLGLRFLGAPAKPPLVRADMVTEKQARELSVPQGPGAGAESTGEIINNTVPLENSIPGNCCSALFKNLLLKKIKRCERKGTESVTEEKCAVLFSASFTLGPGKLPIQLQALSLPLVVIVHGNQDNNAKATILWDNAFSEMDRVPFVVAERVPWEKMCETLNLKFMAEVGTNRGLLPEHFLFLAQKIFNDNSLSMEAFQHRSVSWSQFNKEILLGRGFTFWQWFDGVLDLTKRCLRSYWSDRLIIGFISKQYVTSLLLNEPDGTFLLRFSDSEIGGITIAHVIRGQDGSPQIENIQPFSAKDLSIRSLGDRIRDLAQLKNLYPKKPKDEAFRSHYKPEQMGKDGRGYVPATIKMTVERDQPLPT
Method in brief: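 Competitive displacement of a fluorescent phosphotyrosine peptide (2 nM) from recombinant STAT6 W123-T658 (250 nM), 45 min at room temperature in 10 mM HEPES pH 7.4, 50 mM NaCl, 2 mM DTT. mP fitted against log compound for IC50, grouped A (≤300 nM) to D (>30 μM).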

T1 sequence (P40763 127-722, species assumed): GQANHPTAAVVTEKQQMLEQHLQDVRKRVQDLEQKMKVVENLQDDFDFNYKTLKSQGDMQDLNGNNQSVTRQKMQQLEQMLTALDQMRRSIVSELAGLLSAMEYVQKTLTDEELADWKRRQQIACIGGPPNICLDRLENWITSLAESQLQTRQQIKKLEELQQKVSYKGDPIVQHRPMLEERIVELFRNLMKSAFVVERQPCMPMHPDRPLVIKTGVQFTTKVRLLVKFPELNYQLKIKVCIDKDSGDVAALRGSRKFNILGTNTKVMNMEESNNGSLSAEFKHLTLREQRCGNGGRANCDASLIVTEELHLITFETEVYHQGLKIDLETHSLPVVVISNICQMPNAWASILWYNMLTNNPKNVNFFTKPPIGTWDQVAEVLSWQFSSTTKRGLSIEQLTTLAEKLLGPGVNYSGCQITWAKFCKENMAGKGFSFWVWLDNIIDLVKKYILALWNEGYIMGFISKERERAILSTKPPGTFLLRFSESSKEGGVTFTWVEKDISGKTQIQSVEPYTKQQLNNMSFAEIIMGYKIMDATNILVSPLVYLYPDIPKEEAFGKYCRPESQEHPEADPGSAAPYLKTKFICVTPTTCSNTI

Row | IC50 [1] [nM] | IC50 [2] [nM] | Compound
1 | 100 to 1000 | 300 to 3000 | O=C(N[C@H]1C[C@@H]2C[C@@H]2C[C@H]2CC[C@@H](C(=O)N3CC(c4nn[nH]n4)C3)N2C1=O)c1cc2cc(C(F)(F)P(=O)(O)O)ccc2s1 [Compound 103, ((2-(((3S,6S,7aS,8aR,9aR)-3-(3-(2H-tetrazol-5-yl)azetidine-1-carbonyl)-5-oxodecahydro-1H-cyclopropa[d]pyrrolo[1,2-a]azocin-6-yl)carbamoyl)benzo[b]thiophen-5-yl)difluoromethyl)phosphonic acid]
2 | < 100 | 300 to 3000 | O=C(N[C@H]1C[C@@H]2C[C@@H]2C[C@H]2CC[C@@H](C(=O)N3CCN(C(=O)c4cn[nH]c4)CC3)N2C1=O)c1cc2cc(C(F)(F)P(=O)(O)O)ccc2s1 [Compound 104, ((2-(((3S,6S,7aS,8aR,9aR)-3-(4-(1H-pyrazole-4-carbonyl)piperazine-1-carbonyl)-5-oxodecahydro-1H-cyclopropa[d]pyrrolo[1,2-a]azocin-6-yl)carbamoyl)benzo[b]thiophen-5-yl)difluoromethyl)phosphonic acid]
3 | 100 to 1000 | 300 to 3000 | O=C(N[C@H]1C[C@@H]2C[C@@H]2C[C@H]2CC[C@@H](C(=O)N3CCN(C(=O)c4cc[nH]n4)CC3)N2C1=O)c1cc2cc(C(F)(F)P(=O)(O)O)ccc2s1 [Compound 105, ((2-(((3S,6S,7aS,8aR,9aR)-3-(4-(1H-pyrazole-3-carbonyl)piperazine-1-carbonyl)-5-oxodecahydro-1H-cyclopropa[d]pyrrolo[1,2-a]azocin-6-yl)carbamoyl)benzo[b]thiophen-5-yl)difluoromethyl)phosphonic acid]
4 | < 100 | 3000 to 30000 | O=C(N[C@H]1C[C@H]2C[C@H]2C[C@H]2CC[C@@H](C(=O)N3CC(n4ccnc4)C3)N2C1=O)c1cc2cc(C(F)(F)P(=O)(O)O)ccc2s1 [Compound 107, ((2-(((3S,6S,7aR,8aS,9aR)-3-(3-(1H-imidazol-1-yl)azetidine-1-carbonyl)-5-oxodecahydro-1H-cyclopropa[d]pyrrolo[1,2-a]azocin-6-yl)carbamoyl)benzo[b]thiophen-5-yl)difluoromethyl)phosphonic acid]
5 | < 100 | 3000 to 30000 | O=C(N[C@H]1C[C@@H]2C[C@@H]2C[C@H]2CC[C@@H](C(=O)N3CC(N4CCS(=O)(=O)CC4)C3)N2C1=O)c1cc2cc(C(F)(F)P(=O)(O)O)ccc2s1 [Compound 108, ((2-(((3S,6S,7aS,8aR,9aR)-3-(3-(1,1-dioxidothiomorpholino)azetidine-1-carbonyl)-5-oxodecahydro-1H-cyclopropa[d]pyrrolo[1,2-a]azocin-6-yl)carbamoyl)benzo[b]thiophen-5-yl)difluoromethyl)phosphonic acid]
6 | < 100 | 3000 to 30000 | O=C(N[C@H]1C[C@@H]2C[C@@H]2C[C@H]2CC[C@@H](C(=O)N3CC(C(=O)N4CC[C@@H](O)C4)C3)N2C1=O)c1cc2cc(C(F)(F)P(=O)(O)O)ccc2s1 [Compound 109, (difluoro(2-(((3S,6S,7aS,8aR,9aR)-3-(3-((R)-3-hydroxypyrrolidine-1-carbonyl)azetidine-1-carbonyl)-5-oxodecahydro-1H-cyclopropa[d]pyrrolo[1,2-a]azocin-6-yl)carbamoyl)benzo[b]thiophen-5-yl)methyl)phosphonic acid]
7 | 100 to 1000 | 3000 to 30000 | CC1(O)CCN(C2CN(C(=O)[C@@H]3CC[C@@H]4C[C@H]5C[C@H]5C[C@H](NC(=O)c5cc6cc(C(F)(F)P(=O)(O)O)ccc6s5)C(=O)N43)C2)CC1 [Compound 110, (difluoro(2-(((3S,6S,7aS,8aR,9aR)-3-(3-(4-hydroxy-4-methylpiperidin-1-yl)azetidine-1-carbonyl)-5-oxodecahydro-1H-cyclopropa[d]pyrrolo[1,2-a]azocin-6-yl)carbamoyl)benzo[b]thiophen-5-yl)methyl)phosphonic acid]
8 | < 100 | 300 to 3000 | O=C(N[C@H]1C[C@@H]2C[C@@H]2C[C@H]2CC[C@@H](C(=O)N3CC(c4cc[nH]n4)C3)N2C1=O)c1cc2cc(C(F)(F)P(=O)(O)O)ccc2s1 [Compound 111, ((2-(((3S,6S,7aS,8aR,9aR)-3-(3-(1H-pyrazol-3-yl)azetidine-1-carbonyl)-5-oxodecahydro-1H-cyclopropa[d]pyrrolo[1,2-a]azocin-6-yl)carbamoyl)benzo[b]thiophen-5-yl)difluoromethyl)phosphonic acid]
9 | < 100 | 300 to 3000 | O=C(N[C@H]1C[C@@H]2C[C@@H]2C[C@H]2CC[C@@H](C(=O)N[C@@H]3CCN(c4cccnc4)C3)N2C1=O)c1cc2cc(C(F)(F)P(=O)(O)O)ccc2s1 [Compound 112, (difluoro(2-(((3S,6S,7aS,8aR,9aR)-5-oxo-3-(((R)-1-(pyridin-3-yl)pyrrolidin-3-yl)carbamoyl)decahydro-1H-cyclopropa[d]pyrrolo[1,2-a]azocin-6-yl)carbamoyl)benzo[b]thiophen-5-yl)methyl)phosphonic acid]
10 | 100 to 1000 | 3000 to 30000 | O=C(N[C@H]1C[C@@H]2C[C@@H]2C[C@H]2CC[C@@H](C(=O)N3CCN(c4ccccn4)CC3)N2C1=O)c1cc2cc(C(F)(F)P(=O)(O)O)ccc2s1 [Compound 113, (difluoro(2-(((3S,6S,7aS,8aR,9aR)-5-ox0-3-(4-(pyridin-2-yl)piperazine-1-carbonyl)decahydro-1H-cyclopropa[d]pyrrolo[1,2-a]azocin-6-yl)carbamoyl)benzo[b]thiophen-5-yl)methyl)phosphonic acid]
11 | < 100 | 3000 to 30000 | CO[C@@H]1CCN(C(=O)C2CN(C(=O)[C@@H]3CC[C@@H]4C[C@H]5C[C@H]5C[C@H](NC(=O)c5cc6cc(C(F)(F)P(=O)(O)O)ccc6s5)C(=O)N43)C2)C1 [Compound 114, (difluoro(2-(((3S,6S,7aS,8aR,9aR)-3-(3-((R)-3-methoxypyrrolidine-1-carbonyl)azetidine-1-carbonyl)-5-oxodecahydro-1H-cyclopropa[d]pyrrolo[1,2-a]azocin-6-yl)carbamoyl)benzo[b]thiophen-5-yl)methyl)phosphonic acid]
12 | 100 to 1000 | 300 to 3000 | O=C(N[C@H]1C[C@@H]2C[C@@H]2C[C@H]2CC[C@@H](C(=O)N3CCN(C4CCOCC4)CC3)N2C1=O)c1cc2cc(C(F)(F)P(=O)(O)O)ccc2s1 [Compound 115, (difluoro(2-(((3S,6S,7aS,8aR,9aR)-5-ox0-3-(4-(tetrahydro-2H-pyran-4-yl)piperazine-1-carbonyl)decahydro-1H-cyclopropa[d]pyrrolo[1,2-a]azocin-6-yl)carbamoyl)benzo[b]thiophen-5-yl)methyl)phosphonic acid]
13 | < 100 | 300 to 3000 | CC(=O)N1CC[C@@H](NC(=O)[C@@H]2CC[C@@H]3C[C@H]4C[C@H]4C[C@H](NC(=O)c4cc5cc(C(F)(F)P(=O)(O)O)ccc5s4)C(=O)N32)C1 [Compound 116, ((2-(((3S,6S,7aS,9aR)-3-(((R)-1-acetylpyrrolidin-3-yl)carbamoyl)-5-oxodecahydro-1H-cyclopropa[d]pyrrolo[1,2-a]azocin-6-yl)carbamoyl)benzo[b]thiophen-5-yl)difluoromethyl)phosphonic acid]
14 | < 100 | 300 to 3000 | CC(=O)N1CC[C@H](NC(=O)[C@@H]2CC[C@@H]3C[C@H]4C[C@H]4C[C@H](NC(=O)c4cc5cc(C(F)(F)P(=O)(O)O)ccc5s4)C(=O)N32)C1 [Compound 117, ((2-(((3S,6S,7aS,8aR,9aR)-3-(((S)-1-acetylpyrrolidin-3-yl)carbamoyl)-5-oxodecahydro-1H-cyclopropa[d]pyrrolo[1,2-a]azocin-6-yl)carbamoyl)benzo[b]thiophen-5-yl)difluoromethyl)phosphonic acid]
15 | < 100 | 300 to 3000 | NC(=O)N1CC[C@@H](NC(=O)[C@@H]2CC[C@@H]3C[C@H]4C[C@H]4C[C@H](NC(=O)c4cc5cc(C(F)(F)P(=O)(O)O)ccc5s4)C(=O)N32)C1 [Compound 118, ((2-(((3S,6S,7aS,8aR,9aR)-3-(((R)-1-carbamoylpyrrolidin-3-yl)carbamoyl)-5-oxodecahydro-1H-cyclopropa[d]pyrrolo[1,2-a]azocin-6-yl)carbamoyl)benzo[b]thiophen-5-yl)difluoromethyl)phosphonic acid]
16 | 100 to 1000 | 3000 to 30000 | O=C(N[C@H]1C[C@@H]2C[C@@H]2C[C@H]2CC[C@@H](C(=O)N[C@@H]3CCN(C4CCOCC4)C3)N2C1=O)c1cc2cc(C(F)(F)P(=O)(O)O)ccc2s1 [Compound 119, (difluoro(2-(((3S,6S,7aS,8aR,9aR)-5-oxo-3-(((R)-1-(tetrahydro-2H-pyran-4-yl)pyrrolidin-3-yl)carbamoyl)decahydro-1H-cyclopropa[d]pyrrolo[1,2-a]azocin-6-yl)carbamoyl)benzo[b]thiophen-5-yl)methyl)phosphonic acid]
